In ChEMBL document CHEMBL1201862, “PubChem BioAssay data set” (2004):
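Grown in 96-well plates, cells were treated for 48 hours with each compound at five concentrations. Insufficient inhibition: endpoint recorded as highest concentration tested. GI50 is the concentration that inhibits growth by half.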 The source made the active and inactive calls. No stated cut-off is given here; in the data, active = GI50 up to about 1.1 µM and inactive = higher.

Assays:
Test in all cases: DTP human tumour cell line panel, 48 h
OVCAR-4 = system: OVCAR-4
K562 = system: K562
MDA-MB-231 = system: MDA-MB-231
NCI-H226 = system: NCI-H226
U-251 = system: U-251
NCI-H522 = system: NCI-H522
CCRF-CEM = system: CCRF-CEM
UO-31 = system: UO-31
RPMI-8226 = system: RPMI-8226
BT-549 = system: BT-549
ACHN = system: ACHN
COLO 205 = system: COLO 205
CAKI-1 = system: CAKI-1
SK-MEL-28 = system: SK-MEL-28
SN12C = system: SN12C
NCI/ADR-RES = system: NCI/ADR-RES
Hs-578T = system: Hs-578T
OVCAR-8 = system: OVCAR-8
IGROV-1 = system: IGROV-1
DU-145 = system: DU-145
NCI-H460 = system: NCI-H460
MDA-N = system: MDA-N
SF-268 = system: SF-268
HCT-15 = system: HCT-15
LOX IMVI = system: LOX IMVI
786-0 = system: 786-0
HOP-62 = system: HOP-62
MDA-MB-435 = system: MDA-MB-435
OVCAR-5 = system: OVCAR-5
SK-MEL-5 = system: SK-MEL-5
HCC 2998 = system: HCC 2998
TK-10 = system: TK-10
SF-539 = system: SF-539
SK-OV-3 = system: SK-OV-3
SNB-19 = system: SNB-19
SW-620 = system: SW-620
UACC-62 = system: UACC-62
PC-3 = system: PC-3
T47D = system: T47D
KM12 = system: KM12
SF-295 = system: SF-295
M14 = system: M14
HOP-92 = system: HOP-92
HCT-116 = system: HCT-116
RXF 393 = system: RXF 393
HT-29 = system: HT-29
SR = system: SR
HL-60 = system: HL-60
A549 = system: A549
SK-MEL-2 = system: SK-MEL-2
Malme-3M = system: Malme-3M
SNB-75 = system: SNB-75
EKVX = system: EKVX
UACC-257 = system: UACC-257
MCF7 = system: MCF7
NCI-H23 = system: NCI-H23
OVCAR-3 = system: OVCAR-3
MOLT-4 = system: MOLT-4
A498 = system: A498

CCN(CC)c1ccc2cc(C(=O)Nc3cccc4ccccc34)c(=N)oc2c1
GI50 (OVCAR-4): > 100 µM (inactive)
GI50 (K562): > 100 µM (inactive)
GI50 (MDA-MB-231): > 100 µM (inactive)
GI50 (NCI-H226): > 100 µM (inactive)
GI50 (U-251): 48.4 µM (inactive)
GI50 (NCI-H522): 64 µM (inactive)
GI50 (CCRF-CEM): > 100 µM (inactive)
GI50 (UO-31): > 100 µM (inactive)
GI50 (RPMI-8226): > 100 µM (inactive)
GI50 (BT-549): 24 µM (inactive)
GI50 (ACHN): > 100 µM (inactive)
GI50 (COLO 205): > 100 µM (inactive)
GI50 (CAKI-1): > 100 µM (inactive)
GI50 (SK-MEL-28): 58.5 µM (inactive)
GI50 (SN12C): > 100 µM (inactive)
GI50 (NCI/ADR-RES): > 100 µM (inactive)
GI50 (Hs-578T): 82 µM (inactive)
GI50 (OVCAR-8): > 100 µM (inactive)
GI50 (IGROV-1): > 100 µM (inactive)
GI50 (DU-145): > 100 µM (inactive)
GI50 (NCI-H460): 89.5 µM (inactive)
GI50 (MDA-N): > 100 µM (inactive)
GI50 (SF-268): > 100 µM (inactive)
GI50 (HCT-15): > 100 µM
GI50 (LOX IMVI): > 100 µM (inactive)
GI50 (786-0): 16.8 µM (inactive)
GI50 (HOP-62): > 10 µM (inactive)
GI50 (MDA-MB-435): 91.8 µM (inactive)
GI50 (OVCAR-5): > 100 µM (inactive)
GI50 (SK-MEL-5): 43.1 µM (inactive)
GI50 (HCC 2998): > 100 µM (inactive)
GI50 (TK-10): > 100 µM (inactive)
GI50 (SF-539): 72.9 µM (inactive)
GI50 (SK-OV-3): > 100 µM (inactive)
GI50 (SNB-19): 52.8 µM (inactive)
GI50 (SW-620): 67 µM (inactive)
GI50 (UACC-62): 63.4 µM (inactive)
GI50 (PC-3): > 100 µM (inactive)
GI50 (T47D): > 100 µM (inactive)
GI50 (KM12): > 100 µM (inactive)
GI50 (SF-295): 45.5 µM (inactive)
GI50 (M14): 38.8 µM (inactive)
GI50 (HOP-92): > 100 µM (inactive)
GI50 (HCT-116): > 100 µM (inactive)
GI50 (RXF 393): 61 µM (inactive)
GI50 (HT-29): > 100 µM (inactive)
GI50 (SR): 7.96 µM (inactive)
GI50 (HL-60): 7.98 µM (inactive)
GI50 (A549): 75.9 µM (inactive)
GI50 (SK-MEL-2): > 100 µM (inactive)
GI50 (Malme-3M): 30.5 µM (inactive)
GI50 (SNB-75): > 100 µM (inactive)
GI50 (EKVX): > 100 µM (inactive)
GI50 (UACC-257): > 100 µM (inactive)
GI50 (MCF7): > 100 µM (inactive)

NC(=O)C(=CNC(=S)c1ccncc1)C(N)=O
GI50 (OVCAR-4): > 100 µM (inactive)
GI50 (K562): > 100 µM (inactive)
GI50 (MDA-MB-231): > 100 µM (inactive)
GI50 (NCI-H226): > 100 µM (inactive)
GI50 (U-251): > 100 µM (inactive)
GI50 (NCI-H522): > 100 µM (inactive)
GI50 (CCRF-CEM): > 100 µM (inactive)
GI50 (UO-31): > 100 µM (inactive)
GI50 (RPMI-8226): > 100 µM (inactive)
GI50 (BT-549): > 100 µM (inactive)
GI50 (ACHN): > 100 µM (inactive)
GI50 (NCI-H23): > 100 µM (inactive)
GI50 (OVCAR-3): > 100 µM (inactive)
GI50 (COLO 205): > 100 µM (inactive)
GI50 (CAKI-1): > 100 µM (inactive)
GI50 (SN12C): > 100 µM (inactive)
GI50 (NCI/ADR-RES): > 100 µM (inactive)
GI50 (Hs-578T): > 100 µM (inactive)
GI50 (OVCAR-8): > 100 µM (inactive)
GI50 (IGROV-1): > 100 µM (inactive)
GI50 (DU-145): > 100 µM (inactive)
GI50 (MOLT-4): > 100 µM (inactive)
GI50 (NCI-H460): > 100 µM (inactive)
GI50 (MDA-N): > 100 µM (inactive)
GI50 (SF-268): > 100 µM (inactive)
GI50 (HCT-15): > 100 µM
GI50 (LOX IMVI): > 100 µM (inactive)
GI50 (786-0): > 100 µM (inactive)
GI50 (HOP-62): > 100 µM (inactive)
GI50 (MDA-MB-435): > 100 µM (inactive)
GI50 (OVCAR-5): > 100 µM (inactive)
GI50 (SK-MEL-5): > 100 µM (inactive)
GI50 (HCC 2998): > 100 µM (inactive)
GI50 (TK-10): > 100 µM (inactive)
GI50 (SF-539): > 100 µM (inactive)
GI50 (SK-OV-3): > 100 µM (inactive)
GI50 (SNB-19): > 100 µM (inactive)
GI50 (SW-620): > 100 µM (inactive)
GI50 (UACC-62): > 100 µM (inactive)
GI50 (PC-3): > 100 µM (inactive)
GI50 (T47D): > 100 µM (inactive)
GI50 (KM12): > 100 µM (inactive)
GI50 (SF-295): > 100 µM (inactive)
GI50 (M14): > 100 µM (inactive)
GI50 (HOP-92): > 100 µM (inactive)
GI50 (HCT-116): > 100 µM (inactive)
GI50 (RXF 393): > 100 µM (inactive)
GI50 (HT-29): > 100 µM (inactive)
GI50 (SR): > 100 µM (inactive)
GI50 (HL-60): > 100 µM (inactive)
GI50 (A549): > 100 µM (inactive)
GI50 (SK-MEL-2): > 100 µM (inactive)
GI50 (EKVX): > 100 µM (inactive)
GI50 (UACC-257): > 100 µM (inactive)
GI50 (MCF7): > 100 µM (inactive)

O=C1c2cc(Cl)ccc2N=C(NC2CCCC2)C2CSCN12 (stereo not given)
GI50 (OVCAR-4): > 100 µM (inactive)
GI50 (K562): 59.2 µM (inactive)
GI50 (MDA-MB-231): > 100 µM (inactive)
GI50 (NCI-H226): 60 µM (inactive)
GI50 (U-251): > 100 µM (inactive)
GI50 (NCI-H522): 63.8 µM (inactive)
GI50 (CCRF-CEM): 45.2 µM (inactive)
GI50 (UO-31): 46.3 µM (inactive)
GI50 (RPMI-8226): 87.5 µM (inactive)
GI50 (BT-549): > 100 µM (inactive)
GI50 (ACHN): > 100 µM (inactive)
GI50 (OVCAR-3): 60 µM (inactive)
GI50 (COLO 205): > 100 µM (inactive)
GI50 (CAKI-1): > 100 µM (inactive)
GI50 (SK-MEL-28): > 100 µM (inactive)
GI50 (SN12C): > 100 µM (inactive)
GI50 (NCI/ADR-RES): > 100 µM (inactive)
GI50 (A498): 68.9 µM (inactive)
GI50 (Hs-578T): 39.6 µM (inactive)
GI50 (OVCAR-8): > 100 µM (inactive)
GI50 (IGROV-1): > 100 µM (inactive)
GI50 (DU-145): > 100 µM (inactive)
GI50 (MOLT-4): 33.5 µM (inactive)
GI50 (NCI-H460): 47.4 µM (inactive)
GI50 (MDA-N): > 100 µM (inactive)
GI50 (SF-268): 66.5 µM (inactive)
GI50 (HCT-15): > 100 µM
GI50 (LOX IMVI): > 100 µM (inactive)
GI50 (786-0): > 100 µM (inactive)
GI50 (HOP-62): > 100 µM (inactive)
GI50 (MDA-MB-435): > 100 µM (inactive)
GI50 (OVCAR-5): > 100 µM (inactive)
GI50 (SK-MEL-5): 46.1 µM (inactive)
GI50 (HCC 2998): > 100 µM (inactive)
GI50 (TK-10): > 100 µM (inactive)
GI50 (SK-OV-3): > 100 µM (inactive)
GI50 (SNB-19): > 100 µM (inactive)
GI50 (SW-620): > 100 µM (inactive)
GI50 (UACC-62): > 100 µM (inactive)
GI50 (PC-3): 55.8 µM (inactive)
GI50 (T47D): 42 µM (inactive)
GI50 (KM12): 35.7 µM (inactive)
GI50 (SF-295): > 100 µM (inactive)
GI50 (M14): 91.2 µM (inactive)
GI50 (HCT-116): > 100 µM (inactive)
GI50 (RXF 393): 92.9 µM (inactive)
GI50 (HT-29): 28.9 µM (inactive)
GI50 (SR): 41.5 µM (inactive)
GI50 (A549): > 100 µM (inactive)
GI50 (SK-MEL-2): 36.2 µM (inactive)
GI50 (Malme-3M): > 100 µM (inactive)
GI50 (SNB-75): 52.7 µM (inactive)
GI50 (EKVX): 46.6 µM (inactive)
GI50 (UACC-257): 71.6 µM (inactive)
GI50 (MCF7): > 100 µM (inactive)
